Drawing on patent US10815235B2, “Polycyclic compounds and uses thereof” (priority 2017, dated 2020), this text covers IC50 and EC50 for five molecules.

Experiment [1] deals with Serotonin 5-HT1D receptor (Homo sapiens, UniProt P28221). Briefly: GTPγS Scintillation Proximity Assay, agonist and antagonist mode. It is filed as biochemical. As for the experimental part:
(§1) Antagonist and agonist activities were determined using a GTPγS Scintillation Proximity Assay. The assay was prepared as follows: Membrane extracts were prepared from recombinant human Dopamine D2L, D3; Serotonin 5-HT1A, 5-HT1B, 5-HT1D and 5-HT1F receptors.
(§2) Samples were tested by proprietary biological assays by Ogeda S. A., Euroscreen FAST Business Unit, Rue Adrienne Bolland, 47 B-6041 Gosselies, Belgium. Each protein assay was prepared using the following conditions.
5-HT1D • Assay buffer: 20 mM HEPES pH 7.4; 200 mM NaCl, 10 μg/ml saponin, 3 mM MgCl2; • Membranes: recombinant 5-HT1D membrane extracts thawed on ice and diluted in assay buffer to give […] and kept on ice; • GDP: diluted in assay buffer to give a 30 μM working solution (3 μM final concentration); • Beads: PVT-WGA (Perkin Elmer, RPNQ001), diluted in assay buffer at 50 mg/ml (0.5 mg/10 μl); and • GTPγ^35S: (PerkinElmer NEG030X), diluted in assay buffer to give 0.1 nM.
(§3) Membranes were mixed with GDP (volume:volume 1:1) and incubated for at least 15 min on ice. In parallel, GTPγ[^35S] is mixed with the beads (volume:volume 1:1) just before starting the reaction.
(§4) To determine agonist activity, the following reagents were added in the wells of an Optiplate (Perkin Elmer): 50 μL of test or reference ligand, 10 μL of assay buffer, 20 μl of the membranes:GDP mix, and 20 μL of the GTPγ[^35S]:beads mix. EC50 values were used to determine whether a compound acted as an agonist.
(§5) To determine antagonist activity, the following reagents were added in the wells of an Optiplate (Perkin Elmer): 50 μL of test or reference ligand, 20 μL of the membranes:GDP mix, then the plate is incubated 15 minutes at room temperature. After incubation, 10 μL of reference agonist at historical EC80 (final concentration) was added, followed by 20 μL of the GTPγ[^35S]:beads mix.
(§6) The plates were covered with a top seal, mixed on an orbital shaker for 2 min, and then incubated for 1 hour at room temperature. Then the plates were centrifuged for 10 min at 2000 rpm, incubated at room temperature 1 hour and counted for 1 min/well with a PerkinElmer TopCount reader. IC50 values were used to determine whether a compound acted as an antagonist.

Experiment [2] has as its target Serotonin 5-HT1B receptor (Homo sapiens, UniProt P28222). The description is as above. It is filed as biochemical. The protocol:
as §1, §2
5-HT1B • Assay buffer: 20 mM HEPES pH 7.4; 100 mM NaCl, 10 μg/ml saponin, 3 mM MgCl2; • Membranes: recombinant 5-HT1B membrane extracts thawed on ice and diluted in assay buffer to give 1 mg/ml (10 μg/well) and kept on ice; • GDP: diluted in assay buffer to give a 3 μM final assay concentration; • Beads: PVT-WGA (Perkin Elmer, RPNQ001), diluted in assay buffer at 50 mg/ml (0.5 mg/well); and • GTPγ^35S: (PerkinElmer NEG030X), diluted in assay buffer to give 0.1 nM.
as §3, §4, §5, §6

In experiment [3] the target is T1, Serotonin 5-HT7 receptor (Homo sapiens, UniProt P34969).
T1 construct: expressed in transfected cells; host or cells: CHO-K1
T1 sequence (P34969 whole entry): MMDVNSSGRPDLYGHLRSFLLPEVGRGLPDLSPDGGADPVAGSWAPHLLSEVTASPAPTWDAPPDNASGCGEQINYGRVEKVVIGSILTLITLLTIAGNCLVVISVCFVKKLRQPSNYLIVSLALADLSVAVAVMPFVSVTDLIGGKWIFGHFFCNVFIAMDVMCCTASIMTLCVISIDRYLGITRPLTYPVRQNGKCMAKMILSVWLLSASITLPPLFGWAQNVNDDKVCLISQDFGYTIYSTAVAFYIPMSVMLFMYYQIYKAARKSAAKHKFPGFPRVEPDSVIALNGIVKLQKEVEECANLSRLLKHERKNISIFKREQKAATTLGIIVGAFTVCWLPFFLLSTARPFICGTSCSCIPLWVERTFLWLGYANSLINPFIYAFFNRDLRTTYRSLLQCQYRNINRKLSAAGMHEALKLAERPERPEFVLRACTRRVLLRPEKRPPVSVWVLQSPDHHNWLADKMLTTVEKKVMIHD
Briefly: cAMP HTRF Assay for Gs Coupled Receptors, agonist and antagonist mode. The experiment is classed as cell-based. The protocol:
Antagonist and agonist activities were shown using a cAMP HTRF Assay for Gs Coupled Receptors. The assay was prepared as follows: CHO-K1 cells expressing recombinant human and Serotonin 5-HT7 receptors were grown, prior to analysis, in media without antibiotic. The cells were detached by gentle flushing with PBS-EDTA (5 mM EDTA), recovered by centrifugation, and resuspended in assay buffer (KRH: 5 mM KCl, 1.25 mM MgSO4, 124 mM NaCl, 25 mM HEPES, 13.3 mM Glucose, 1.25 mM KH2PO4, 1.45 mM CaCl2, 0.5 g/l BSA).
To determine agonist activity (96 well), 12 μL of cells were mixed with 12 μL of the test compound at increasing concentrations and then incubated 30 min at room temperature. After addition of the lysis buffer and 1 hour incubation, cAMP concentrations were estimated according to the manufacturer specification.
Antagonist activity was determined in 96 well plates: 12 μL of cells were mixed with 6 μL of the test compound at increasing concentrations and then incubated 10 min. Thereafter 6 μL of the reference agonist was added at a final concentration corresponding to the historical EC80. The plates were then incubated for 30 min at room temperature. After addition of the lysis buffer and 1 hour incubation, cAMP concentrations were estimated according to the manufacturer specification. IC50 values were used to determine whether a compound acted as an antagonist.

Experiment [4] has as its target T2, Serotonin 5-HT2B receptor (Homo sapiens, UniProt P41595).
T2 construct: expressed in transfected cells; host or cells: CHO-K1
Briefly: IPOne HTRF assay, agonist and antagonist mode. It is filed as cell-based. As for the experimental part:
Antagonist and agonist activities were determined using an IPOne […] HTRF assay. The assay was prepared as follows: CHO-K1 cells expressing human recombinant Adrenergic α1A, Serotonin 5-HT2A, and 5-HT2B receptors grown to mid-log phase in culture media without antibiotics were detached with PBS-EDTA, centrifuged and resuspended in medium without antibiotics buffer. 20,000 cells were distributed in a 96 well plate and incubated overnight at 37° C. with 5% CO2.
To analyze agonist activity, the medium was removed and 20 μl of assay buffer plus 20 μl of test compound or reference agonist were added in each well. The plate was incubated for 60 min. at 37° C. with 5% CO2. EC50 values were used to determine whether a compound acted as an agonist.
To analyze antagonist activity, 20 μl of test compound or reference antagonist was added and the plate is incubated for 15 min. at 37° C. in a humidified atmosphere of 95% air with 5% CO2, then 20 μl of reference agonist at a final concentration corresponding to the historical EC80 is added. The plate is incubated for 60 min. at 37° C. with 5% CO2. IP1-D2 reagent and anti-IP1 cryptate reagents are then dispensed in the wells and IP1 concentrations are then measured following the manufacturer recommendations. IC50 values were used to determine whether a compound acted as an antagonist.

Where [5] appears, read: Antagonist Activity (IC50), 5-HT1D, membrane extracts, vs reference agonist at EC80.
[6] abbreviates: IC50 value for the Serotonin 5-HT1D receptor, antagonist mode, bound stated.
Setting [7] is: Antagonist Activity (IC50), 5-HT1B, membrane extracts, vs reference agonist at EC80.
[8] abbreviates: IC50 value for the Serotonin 5-HT1B receptor, antagonist mode, bound stated.
Where [9] appears, read: Antagonist Activity (IC50), 5-HT7, CHO-K1 cells, vs reference agonist at EC80.
Where [10] appears, read: IC50 value for the Serotonin 5-HT7 receptor, antagonist mode, bound stated.
Setting [11] is: CHO-K1 cells, vs reference agonist at EC80, read-out: Antagonist Activity (IC50), 5-HT2B.
Setting [12] is: antagonist mode, bound stated, read-out: IC50 value for the Serotonin 5-HT2B receptor.

Like-named read-outs stand apart in the source and are kept apart here.

Serotonin 5-HT1B receptor, sequence (P28222 whole entry): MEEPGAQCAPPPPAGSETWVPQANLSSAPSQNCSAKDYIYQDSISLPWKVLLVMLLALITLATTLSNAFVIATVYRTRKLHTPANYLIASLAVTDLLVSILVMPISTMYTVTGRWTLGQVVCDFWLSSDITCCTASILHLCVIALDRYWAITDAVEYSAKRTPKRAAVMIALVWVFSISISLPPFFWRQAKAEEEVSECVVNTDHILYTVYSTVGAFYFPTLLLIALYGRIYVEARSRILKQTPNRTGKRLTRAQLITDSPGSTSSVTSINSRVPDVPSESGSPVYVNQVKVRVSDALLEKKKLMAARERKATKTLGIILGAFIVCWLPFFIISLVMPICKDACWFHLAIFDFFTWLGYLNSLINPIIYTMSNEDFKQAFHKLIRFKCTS
T2 sequence (P41595 whole entry): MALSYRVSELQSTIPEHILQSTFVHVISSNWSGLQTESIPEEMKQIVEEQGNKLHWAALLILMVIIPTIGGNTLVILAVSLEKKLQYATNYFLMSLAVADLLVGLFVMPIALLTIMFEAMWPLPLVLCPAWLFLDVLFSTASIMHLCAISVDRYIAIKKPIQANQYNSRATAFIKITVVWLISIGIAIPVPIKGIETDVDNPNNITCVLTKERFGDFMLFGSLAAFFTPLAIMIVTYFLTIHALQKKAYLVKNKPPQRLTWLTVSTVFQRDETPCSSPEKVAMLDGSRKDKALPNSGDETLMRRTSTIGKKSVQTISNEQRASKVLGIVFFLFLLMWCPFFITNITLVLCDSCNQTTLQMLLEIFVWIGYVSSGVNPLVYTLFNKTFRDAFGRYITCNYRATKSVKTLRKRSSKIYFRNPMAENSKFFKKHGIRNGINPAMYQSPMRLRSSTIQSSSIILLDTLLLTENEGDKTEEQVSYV
Serotonin 5-HT1D receptor, sequence (P28221 whole entry): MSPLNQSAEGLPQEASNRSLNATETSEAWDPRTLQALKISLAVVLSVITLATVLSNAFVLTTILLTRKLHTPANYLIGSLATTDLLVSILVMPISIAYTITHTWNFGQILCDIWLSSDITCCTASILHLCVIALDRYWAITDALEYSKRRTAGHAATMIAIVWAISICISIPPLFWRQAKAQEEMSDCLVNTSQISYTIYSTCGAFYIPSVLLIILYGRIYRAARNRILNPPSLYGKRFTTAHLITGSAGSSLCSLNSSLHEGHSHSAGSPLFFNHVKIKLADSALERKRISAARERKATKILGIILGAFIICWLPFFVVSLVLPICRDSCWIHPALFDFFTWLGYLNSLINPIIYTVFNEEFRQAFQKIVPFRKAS

With `CCN(CC)C(=O)N[C@H]1C[C@@H]2c3cccc4[nH]c(Br)c(c34)C[C@H]2N(C)C1` [Compound A8H, 3-((6aR,9S, 10aR)-5-bromo-7-methyl-4,6,6a,7,8,9,10,10a-octahydroindolo[4,3-fg]quinolin-9-yl)-1,1-diethylurea], the half-inhibitory concentration (IC50) (usually the concentration at which inhibition is half-maximal) in experiment [1] (setting [5]) is 8 nM; in experiment [1] (setting [6]), under 1000 nM; in experiment [2] (setting [7]), 410 nM; in experiment [2] (setting [8]), under 1000 nM; in experiment [3] (setting [9]), 110 nM; in experiment [3] (setting [10]), under 1000 nM. Further, the IC50 in experiment [4] (setting [11]) was found to be 52 nM. Further, in experiment [4] (agonist mode, bound stated), the EC50 (usually the midpoint of the concentration-response curve) is under 1000 nM.

On to `CCN(CC)C(=O)N[C@H]1C[C@@H]2c3cccc4[nH]c(C(F)(F)F)c(c34)C[C@H]2N(C)C1` [Compound A9H, 1,1-diethyl-3-((6aR,9S,10aR)-7-methyl-5-(trifluoromethyl)-4,6,6a,7,8,9,10,10a-octahydroindolo[4,3-fg]quinolin-9-yl)urea], for which the IC50 in experiment [1] (setting [5]) was 10 nM; in experiment [1] (setting [6]), under 1000 nM; in experiment [2] (setting [7]) it was 110 nM; in experiment [2] (setting [8]), under 1000 nM; in experiment [3] (setting [9]), 190 nM; in experiment [3] (setting [10]), under 1000 nM. Besides, the 50% inhibitory concentration (IC50) in experiment [4] (setting [11]) is 23 nM; in experiment [4] (setting [12]) it was under 1000 nM.

Turning to `CCN(CC(F)(F)F)C(=O)N[C@H]1C[C@@H]2c3cccc4[nH]c(C(F)(F)F)c(c34)C[C@H]2N(C)C1` [Compound A16H, 1-ethyl-3-((6aR,9S,10aR)-7-methyl-5-(trifluoromethyl)-4,6,6a,7,8,9,10,10a-octahydroindolo[4,3-fg]quinolin-9-yl)-1-(2,2,2-trifluoroethyl)urea], the 50% inhibitory concentration (IC50) in experiment [1] (setting [6]) was under 1000 nM; in experiment [1] (membrane extracts, vs reference agonist at EC80, read-out: Antagonist Activity (IC50), 5-HT1D), 14 nM; in experiment [2] (setting [8]) it was under 1000 nM; in experiment [2] (membrane extracts, vs reference agonist at EC80, read-out: Antagonist Activity (IC50), 5-HT1B), 340 nM; in experiment [3] (CHO-K1 cells, vs reference agonist at EC80, read-out: Antagonist Activity (IC50), 5-HT7), 380 nM; in experiment [3] (setting [10]), under 1000 nM. The IC50 in experiment [4] (Antagonist Activity (IC50), 5-HT2B, CHO-K1 cells, vs reference agonist at EC80) was 16 nM; in experiment [4] (IC50 value for the Serotonin 5-HT2B receptor, antagonist mode, bound stated) it was under 1000 nM.

`CCN(CC(F)(F)F)C(=O)N[C@H]1C[C@@H]2c3cccc4[nH]c(C5CC5)c(c34)C[C@H]2N(C)C1` [Compound A17H, 3-((6aR,9S,10aR)-5-cyclopropyl-7-methyl-4,6,6a,7,8,9,10,10a-octahydroindolo[4,3-fg]quinolin-9-yl)-1-ethyl-1-(2,2,2-trifluoroethyl)urea]: the IC50 in experiment [1] (setting [5]) was 50 nM; in experiment [1] (setting [6]), under 1000 nM; in experiment [3] (setting [9]), 140 nM; in experiment [3] (setting [10]), under 1000 nM; in experiment [4] (setting [11]) it was 25 nM; in experiment [4] (setting [12]) it was under 1000 nM.

As to `CC[C@@H](CO)NC(=O)[C@@H]1C[C@@H]2c3cccc4c3c(c(C3CC3)n4C)C[C@H]2N(C)C1` [Compound D13H, (6aR,9R,10aR)-5-cyclopropyl-N—((S)-1-hydroxybutan-2-yl)-4,7-dimethyl-4,6,6a,7,8,9,10,10a-octahydroindolo[4,3-fg]quinoline-9-carboxamide], the EC50 was 11 nM in experiment [1] (Agonist Activity (EC50), 5-HT1D, membrane extracts); under 1000 nM in experiment [1] (EC50 value for the Serotonin 5-HT1D receptor, agonist mode, bound stated); 430 nM in experiment [2] (Agonist Activity (EC50), 5-HT1B, membrane extracts); under 1000 nM in experiment [2] (EC50 value for the Serotonin 5-HT1B receptor, agonist mode, bound stated); 40 nM in experiment [3]. The 50% inhibitory concentration (IC50) in experiment [3] (setting [9]) is 780 nM; in experiment [3] (setting [10]), under 1000 nM; in experiment [4] (setting [11]), 3.4 nM; in experiment [4] (setting [12]) it was under 1000 nM.
